Data from the supplement of paper PMC10307832.

Assays:
Experiment in all cases: relative viability (nuclei count vs DMSO), 5 days (fraction); higher = more cells survive
[1] = compound: CN1CCN(CC1)C2=CC(=C(C=C2)NC3=NC(=C(S3)C(=O)C4=C(C=CC=C4Cl)Cl)N)OC [XMD14-99] + C[C@@H](Oc1cc(-c2cnn(C3CCNCC3)c2)cnc1N)c1c(Cl)ccc(F)c1Cl [Crizotinib] (partner 1 µM)
Outline: (§1)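 Nuclei were stained with Hoechst during a one-step fixation (final 0.05% Triton X-100, 1% formaldehyde, 1 ug/ml Hoechst) carried out 5 days after dosing, then counted on 4× images. The cells, lung cancer lines in 1536-well plates, had been dosed by pin tool the day after seeding with one drug alone or a fixed anchor-drug dose plus five library-drug doses (not always all listed) in √10 steps. Relative viability is the nuclei count in treated wells divided by that in vehicle wells, and each value is the median of duplicate plates.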

[2] = compound: CN1CCN(CC1)C2=CC(=C(C=C2)NC3=NC(=C(S3)C(=O)C4=C(C=CC=C4Cl)Cl)N)OC [XMD14-99] + C[C@]1(O)C[C@@H](c2nc(-c3ccc4ccc(-c5ccccc5)nc4c3)c3c(N)nccn32)C1 [Linsitinib] (partner 1 µM)
Outline: as §1

[3] = compound: N[C@@H]1CCCN(c2c(/C=C3\SC(=O)NC3=O)cccc2-c2ccccc2)C1 [AZD1208] + CC(=O)c1c(C)c2cnc(Nc3ccc(N4CCNCC4)cn3)nc2n(C2CCCC2)c1=O [Palbociclib] (partner 0.5 µM)
Outline: as §1

[4] = compound: N[C@@H]1CCCN(c2c(/C=C3\SC(=O)NC3=O)cccc2-c2ccccc2)C1 [AZD1208] + Nc1ncn([C@H]2C[C@H](O)[C@@H](CO)O2)c(=O)n1 [Decitabine] (partner 2 µM)
Outline: as §1

Row | Cell Line | relative viability ([1]; first compound 0.08 µM) | relative viability ([1]; first compound 0.8 µM) | relative viability ([1]; first compound 2.53 µM) | relative viability ([1]; first compound 8 µM) | relative viability ([2]; first compound 0.08 µM) | relative viability ([2]; first compound 0.8 µM) | relative viability ([2]; first compound 2.53 µM) | relative viability ([2]; first compound 8 µM) | relative viability ([3]; first compound 0.08 µM) | relative viability ([3]; first compound 0.253 µM) | relative viability ([3]; first compound 0.8 µM) | relative viability ([3]; first compound 2.53 µM) | relative viability ([3]; first compound 8 µM) | relative viability ([4]; first compound 0.08 µM) | relative viability ([4]; first compound 0.253 µM) | relative viability ([4]; first compound 0.8 µM) | relative viability ([4]; first compound 2.53 µM) | relative viability ([4]; first compound 8 µM)
1 | NCI-H838 | 0.877 | 0.798 | 0.82 | 0.557 | 0.948 | 0.932 | 0.92 | 0.681 | 0.21 | 0.231 | 0.209 | 0.187 | 0.201 | 0.458 | 0.491 | 0.465 | 0.493 | 0.406
2 | NCI-H1355 | 1.15 | 1.11 | 0.949 | 0.879 | 0.796 | 0.809 | 0.74 | 0.633 | 0.396 | 0.37 | 0.372 | 0.385 | 0.318 | 0.331 | 0.327 | 0.335 | 0.341 | 0.33
3 | NCI-H1437 | 0.843 | 0.905 | 0.822 | 0.684 | 0.961 | 0.983 | 0.735 | 0.387 | 0.288 | 0.353 | 0.302 | 0.263 | 0.291 | 0.546 | 0.594 | 0.638 | 0.581 | 0.536
4 | NCI-H1651 | 0.869 | 0.799 | 0.934 | 0.825 | 0.941 | 0.886 | 0.904 | 0.84 | 0.527 | 0.535 |  | 0.473 | 0.459 | 0.665 | 0.642 |  | 0.613 | 0.554
5 | NCI-H1666 | 0.926 | 0.899 | 0.779 | 0.575 | 0.809 | 0.834 | 0.704 | 0.625 | 0.62 | 0.672 | 0.607 | 0.605 | 0.672 | 0.735 | 0.713 | 0.635 | 0.743 | 0.629
6 | NCI-H1734 | 0.634 | 0.713 | 0.618 | 0.638 | 0.854 | 0.897 | 0.823 | 0.745 | 0.312 | 0.32 | 0.313 | 0.325 | 0.255 | 0.534 | 0.466 | 0.44 | 0.424 | 0.409
7 | NCI-H1755 | 0.846 | 0.878 | 0.825 | 0.614 | 1.02 | 0.989 | 1.02 | 0.736 | 0.439 | 0.459 | 0.437 | 0.458 | 0.385 | 0.695 | 0.675 | 0.723 | 0.713 | 0.625
8 | NCI-H1792 | 1.02 | 0.956 | 1.01 | 0.709 | 0.637 | 0.522 | 0.432 | 0.311 | 0.697 | 0.663 | 0.616 | 0.587 | 0.554 | 0.624 | 0.538 |  | 0.505 | 0.468
9 | NCI-H1915 | 1.02 | 0.877 | 0.812 | 0.805 | 1.14 | 1.04 | 0.951 | 0.965 | 0.504 | 0.435 | 0.486 | 0.474 | 0.455 | 0.249 | 0.263 | 0.235 | 0.271 | 0.231
10 | NCI-H1944 | 1.25 | 1.13 | 0.992 | 0.857 | 1.23 | 1.19 | 1.12 | 1.04 | 0.314 | 0.304 | 0.295 | 0.311 | 0.251 | 0.42 | 0.437 | 0.467 | 0.355 | 0.372
11 | NCI-H1975 | 0.934 | 0.984 | 0.902 | 0.74 | 0.872 | 0.97 | 0.81 | 0.663 | 0.56 | 0.686 | 0.535 | 0.591 | 0.403 | 0.356 | 0.412 | 0.357 | 0.377 | 0.284
12 | NCI-H1993 | 0.952 | 0.847 | 0.792 | 0.68 | 0.684 | 0.66 | 0.659 | 0.749 | 0.595 | 0.578 | 0.439 | 0.544 | 0.432 | 0.526 | 0.586 | 0.613 | 0.5 | 0.468
13 | NCI-H2009 | 1 | 0.939 | 0.997 | 0.767 | 1.2 | 1.15 | 1.19 | 0.91 | 0.196 | 0.202 | 0.221 | 0.208 | 0.181 | 0.41 | 0.374 | 0.346 | 0.39 | 0.336
14 | NCI-H2023 | 0.731 | 0.648 | 0.667 | 0.495 | 0.662 | 0.551 | 0.63 | 0.514 | 0.34 | 0.39 | 0.333 | 0.373 | 0.332 | 0.232 | 0.193 | 0.199 | 0.206 | 0.225
15 | NCI-H2085 | 0.833 | 0.814 | 0.843 | 0.56 | 0.872 | 0.86 | 0.784 | 0.667 | 0.462 | 0.473 | 0.52 | 0.482 | 0.474 | 0.555 | 0.491 | 0.587 | 0.544 | 0.449
16 | NCI-H2087 | 0.773 | 0.896 | 0.632 | 0.463 | 0.894 | 0.695 | 0.679 | 0.646 | 0.257 | 0.192 | 0.276 | 0.241 | 0.219 | 0.229 | 0.307 | 0.258 | 0.236 | 0.25
17 | NCI-H2126 | 1.01 | 1.02 | 0.979 | 0.937 | 0.739 | 0.705 | 0.668 | 0.628 | 0.363 | 0.362 | 0.349 | 0.33 | 0.382 | 0.563 | 0.641 | 0.523 | 0.501 | 0.475
18 | NCI-H2347 | 0.803 | 0.531 | 0.737 | 0.501 | 1.02 | 1.02 | 0.873 | 0.633 | 0.457 | 0.383 | 0.45 | 0.395 | 0.382 | 0.599 | 0.631 | 0.564 | 0.671 | 0.645
19 | NCI-H2405 | 0.84 | 0.858 | 0.863 | 0.674 | 0.913 | 0.992 | 0.9 | 0.566 | 0.497 | 0.536 | 0.505 | 0.51 | 0.418 | 0.683 | 0.752 | 0.695 | 0.719 | 0.653
20 | NCI-H3122 | 0.267 | 0.229 | 0.262 | 0.251 | 1 | 1.02 | 0.88 | 0.678 | 0.206 | 0.155 | 0.149 | 0.223 | 0.164 | 0.457 | 0.362 | 0.351 | 0.431 | 0.315
21 | PC-3 [JPC-3] | 1.05 | 0.955 | 0.916 | 0.781 | 1.04 | 0.878 | 0.828 | 0.844 | 0.586 | 0.596 | 0.548 | 0.582 | 0.564 | 0.81 | 0.932 | 0.751 | 0.887 | 0.81
22 | PC-14 | 0.824 | 0.796 | 0.866 | 0.714 | 1.08 | 0.932 | 0.958 | 0.684 | 0.511 | 0.59 | 0.502 | 0.532 | 0.475 | 0.254 | 0.209 | 0.224 | 0.203 | 0.207
23 | RERF-LC-KJ | 0.891 | 0.836 | 0.845 | 0.699 | 0.878 | 0.888 | 0.873 | 0.743 | 1.05 | 1.09 | 1 | 1.02 | 0.802 | 0.66 | 0.674 | 0.632 | 0.586 | 0.555
24 | SK-LU-1 | 0.788 | 0.923 | 0.796 | 0.58 | 0.872 | 1.2 | 1.07 | 0.671 | 0.341 | 0.373 | 0.375 | 0.421 | 0.401 | 0.586 | 0.621 | 0.629 | 0.622 | 0.511
25 | SK-MES-1 | 0.991 | 0.946 | 1.01 | 0.639 | 1.08 | 1.04 | 1.03 | 0.754 | 0.299 | 0.348 | 0.316 | 0.307 | 0.311 | 0.373 | 0.352 | 0.33 | 0.364 | 0.301
26 | SW 1573 | 0.792 | 0.878 | 0.793 | 0.757 | 0.723 | 0.785 | 0.782 | 0.885 | 0.264 | 0.268 | 0.265 | 0.346 | 0.259 | 0.465 | 0.417 | 0.457 | 0.448 | 0.354
